Values of other authors, collected in paper PMC10973013, “Translational Potential of a Contrast Agent for FGS Applications in pNETs” (Molecular Imaging and Biology, 2024).

System: lesions in ovarian cancer patients
Details: cytoreductive surgery, randomized phase 3
From the text: The critical need for accurate tumor detection during oncologic surgery has led to the development of fluorescent contrast agents that target cancerous tissues. This technique, known as fluorescence-guided surgery (FGS), typically involves systemic administration of a fluorescent compound that contains a tumor-targeting moiety and is imaged in the near-infrared spectral range in order to maximize image contrast and diagnostic accuracy. In 2021, the folic acid analog OTL-38 (CYTALUX®) became the first clinically approved FGS agent to target tumors via an active, receptor-mediated process. ...

In the case of CC1(C)C(/C=C/C2=C(Oc3ccc(C[C@H](NC(=O)c4ccc(NCc5cnc6nc(N)[nH]c(=O)c6n5)cc4)C(=O)[O-])cc3)C(=C/C=C3\N(CCCCS(=O)(=O)[O-])c4ccc(S(=O)(=O)[O-])cc4C3(C)C)/CCC2)=[N+](CCCCS(=O)(=O)[O-])c2ccc(S(=O)(=O)[O-])cc21.[H+].[H+].[H+].[H+] [OTL-38], the “identification of lesions with FGS versus standard-of-care methods” value is listed as “more effectively identified with FGS than with standard-of-care methods”.
